# Assay: Preclinical incorporation dosimetry: whole-body PET/CT in piglets, scaled to human, OLINDA 2.1, ICRP103
# Type: in vivo, juvenile pigs
# Protocol: Three piglets (age: ~6 weeks, weight: ~13–15 kg) were fasted on the day of imaging and received an intranuscular. injection of 1 mL azaperone and 4 mL ketamine to introduce anesthesia. […] During narcosis, the animals maintained spontaneous respiration and no mandatory ventilation was applied. The subjects were sequentially imaged after an iv injection (contralateral ear vein) of 156 ± 54 MBq [^18F]FACH (0.63 ± 0.49 µg) in a PET/CT system (Biograph16, SIEMENS, Erlangen, Germany). The piglets were positioned prone with legs alongside the body on a custom-made plastic trough including a piglet head-holder (Figure 5). The PET acquisition was divided into a sequential (4 × 9 min, 3 × 12 min) and a static part (1 × 24 min, 1 × 30 min, 1 × 36 min), each of which was preceded by a low-dose CT to acquire structural data for attenuation correction (AC) and anatomical orientation (Figure 6). Post mortem, the urine was collected by bladder punctuation, weighted, and divided into three 1 mL samples for activity measurements in a gamma-counter (Packard Cobra II 5003 Auto Gamma Counting System, GMI, Ramsey, MN, USA).
# PET data reconstruction was done using low-dose CT attenuation correction (AC) and an iterative OSEM algorithm with 4 iterations and 8 subsets. As the PET/CT system is in daily clinical use, it is periodically subjected to detector normalization and activity calibration. Furthermore, all peripheral activity-measuring devices to be used for the investigation (dose calibrator, gamma counter) are cross-calibrated in terms of timing and a radioactivity adjustment.
# The image data were analyzed with ROVER (ABX, Radeberg, Germany; v. 3.0.46h). The organs were identified and manually delineated using 3D volumes of interest (VOI). The CT data were used for anatomical orientation and for image registration with the PET data. Relevant source organs like brain, gall bladder, large intestine, small intestine, stomach, heart, kidneys, liver, lungs, pancreas, red marrow (backbone, pelvis, sternum), spleen, thyroid, testes, skeleton (bone), and the urinary bladder were delineated and the time–activity data transformed into percentage of injected dose (%IDorgan) with Equation (2). (2) %IDorgant=Aorgant×cscant/A0t [%] where Aorgant is the activity in the organ at the time t; cscant is a calibration factor representing the theoretical body activity (derived from a whole body mask of a volume that equals the body dimentions of the animal) decay corrected to t and divided by the imaged body activity in each image frame at the time t, and A0t is the injected activity decay corrected to t0.
# The dose calculation has been described by our group in detail before. Briefly, due to differences in weight, size, and metabolic rates between the animal species and the human volunteers, it is necessary to map the preclinical extracted biodistribution data to human circumstances. Thus, the animal biokinetic data (time scale and %ID values) were adapted to the human circumstances according to [22] to fit the human weight, size, and metabolic rates (Equations (3) and (4)). (3) thuman=tanimal[mhuman/manimal]^0.25 (4) [%ID]/organhuman=[%ID]/ganimal×mTBanimal[g]/mTBhuman[g]×morganhuman[g]
# The TIACs were estimated by exponential fitting and the dosimetry estimation was performed using OLINDA/EXM software (v. 2.1). Finally, organ doses (OD) were estimated and multiplied by tissue weighting factors as published in ICRP103 [20].
smiles,measurement,setting,value
"CCCN(CCC[18F])c1ccc(/C=C(\C#N)C(=O)O)c(OC)c1 [[^18F]FACH, (E)-2-cyano-3-{4-[(3-[^18F]fluoropropyl)(propyl)amino]-2-methoxyphenyl}acrylic acid]",Effective dose,FACHpig1,1.25E-02 mSv/MBq
same,"Effective dose contribution HT wT, Adrenals",FACHpig1,1.26E-04 mSv/MBq
same,"Effective dose contribution HT wT, Brain",FACHpig1,5.61E-05 mSv/MBq
same,"Effective dose contribution HT wT, Esophagus",FACHpig1,4.16E-04 mSv/MBq
same,"Effective dose contribution HT wT, Eyes",FACHpig1,0.00E+00 mSv/MBq
same,"Effective dose contribution HT wT, Gallbladder Wall",FACHpig1,1.12E-04 mSv/MBq
same,"Effective dose contribution HT wT, Heart Wall",FACHpig1,9.47E-05 mSv/MBq
same,"Effective dose contribution HT wT, Kidneys",FACHpig1,2.47E-04 mSv/MBq
same,"Effective dose contribution HT wT, Left colon",FACHpig1,7.77E-04 mSv/MBq
same,"Effective dose contribution HT wT, Liver",FACHpig1,3.22E-04 mSv/MBq
same,"Effective dose contribution HT wT, Lungs",FACHpig1,9.67E-04 mSv/MBq
same,"Effective dose contribution HT wT, Osteogenic Cells",FACHpig1,2.00E-04 mSv/MBq
same,"Effective dose contribution HT wT, Pancreas",FACHpig1,5.61E-04 mSv/MBq
same,"Effective dose contribution HT wT, Prostate",FACHpig1,7.36E-05 mSv/MBq
same,"Effective dose contribution HT wT, Rectum",FACHpig1,3.44E-04 mSv/MBq
same,"Effective dose contribution HT wT, Red Marrow",FACHpig1,1.58E-03 mSv/MBq
same,"Effective dose contribution HT wT, Right colon",FACHpig1,9.34E-04 mSv/MBq
same,"Effective dose contribution HT wT, Salivary Glands",FACHpig1,1.03E-04 mSv/MBq
same,"Effective dose contribution HT wT, Small Intestine",FACHpig1,1.74E-04 mSv/MBq
same,"Effective dose contribution HT wT, Spleen",FACHpig1,9.48E-05 mSv/MBq
same,"Effective dose contribution HT wT, Stomach Wall",FACHpig1,1.71E-03 mSv/MBq
same,"Effective dose contribution HT wT, Testes",FACHpig1,4.40E-04 mSv/MBq
same,"Effective dose contribution HT wT, Thymus",FACHpig1,9.49E-05 mSv/MBq
same,"Effective dose contribution HT wT, Thyroid",FACHpig1,3.21E-04 mSv/MBq
same,"Effective dose contribution HT wT, Total Body",FACHpig1,0.00E+00 mSv/MBq
same,"Effective dose contribution HT wT, Urinary Bladder Wall",FACHpig1,2.74E-03 mSv/MBq
same,"Organ equivalent dose HT, Adrenals",FACHpig1,1.36E-02 mSv/MBq
same,"Organ equivalent dose HT, Brain",FACHpig1,5.61E-03 mSv/MBq
same,"Organ equivalent dose HT, Esophagus",FACHpig1,1.04E-02 mSv/MBq
same,"Organ equivalent dose HT, Eyes",FACHpig1,8.81E-03 mSv/MBq
same,"Organ equivalent dose HT, Gallbladder Wall",FACHpig1,1.22E-02 mSv/MBq
same,"Organ equivalent dose HT, Heart Wall",FACHpig1,1.03E-02 mSv/MBq
same,"Organ equivalent dose HT, Kidneys",FACHpig1,2.67E-02 mSv/MBq
same,"Organ equivalent dose HT, Left colon",FACHpig1,1.60E-02 mSv/MBq
same,"Organ equivalent dose HT, Liver",FACHpig1,8.05E-03 mSv/MBq
same,"Organ equivalent dose HT, Lungs",FACHpig1,8.05E-03 mSv/MBq
same,"Organ equivalent dose HT, Osteogenic Cells",FACHpig1,2.00E-02 mSv/MBq
same,"Organ equivalent dose HT, Pancreas",FACHpig1,6.08E-02 mSv/MBq
same,"Organ equivalent dose HT, Prostate",FACHpig1,1.59E-02 mSv/MBq
same,"Organ equivalent dose HT, Rectum",FACHpig1,1.50E-02 mSv/MBq
same,"Organ equivalent dose HT, Red Marrow",FACHpig1,1.32E-02 mSv/MBq
same,"Organ equivalent dose HT, Right colon",FACHpig1,1.93E-02 mSv/MBq
same,"Organ equivalent dose HT, Salivary Glands",FACHpig1,1.03E-02 mSv/MBq
same,"Organ equivalent dose HT, Small Intestine",FACHpig1,1.88E-02 mSv/MBq
same,"Organ equivalent dose HT, Spleen",FACHpig1,1.03E-02 mSv/MBq
same,"Organ equivalent dose HT, Stomach Wall",FACHpig1,1.43E-02 mSv/MBq
same,"Organ equivalent dose HT, Testes",FACHpig1,1.10E-02 mSv/MBq
same,"Organ equivalent dose HT, Thymus",FACHpig1,1.03E-02 mSv/MBq
same,"Organ equivalent dose HT, Thyroid",FACHpig1,8.02E-03 mSv/MBq
same,"Organ equivalent dose HT, Total Body",FACHpig1,1.15E-02 mSv/MBq
same,"Organ equivalent dose HT, Urinary Bladder Wall",FACHpig1,6.86E-02 mSv/MBq
same,Effective dose,FACHpig2,1.19E-02 mSv/MBq
same,"Effective dose contribution HT wT, Adrenals",FACHpig2,1.33E-04 mSv/MBq
same,"Effective dose contribution HT wT, Brain",FACHpig2,4.35E-05 mSv/MBq
same,"Effective dose contribution HT wT, Esophagus",FACHpig2,3.43E-04 mSv/MBq
same,"Effective dose contribution HT wT, Eyes",FACHpig2,0.00E+00 mSv/MBq
same,"Effective dose contribution HT wT, Gallbladder Wall",FACHpig2,4.78E-04 mSv/MBq
same,"Effective dose contribution HT wT, Heart Wall",FACHpig2,8.50E-05 mSv/MBq
same,"Effective dose contribution HT wT, Kidneys",FACHpig2,2.20E-04 mSv/MBq
same,"Effective dose contribution HT wT, Left colon",FACHpig2,7.07E-04 mSv/MBq
same,"Effective dose contribution HT wT, Liver",FACHpig2,1.11E-03 mSv/MBq
same,"Effective dose contribution HT wT, Lungs",FACHpig2,9.55E-04 mSv/MBq
same,"Effective dose contribution HT wT, Osteogenic Cells",FACHpig2,2.34E-04 mSv/MBq
same,"Effective dose contribution HT wT, Pancreas",FACHpig2,2.11E-04 mSv/MBq
same,"Effective dose contribution HT wT, Prostate",FACHpig2,4.73E-05 mSv/MBq
same,"Effective dose contribution HT wT, Rectum",FACHpig2,3.17E-04 mSv/MBq
same,"Effective dose contribution HT wT, Red Marrow",FACHpig2,1.97E-03 mSv/MBq
same,"Effective dose contribution HT wT, Right colon",FACHpig2,1.58E-03 mSv/MBq
same,"Effective dose contribution HT wT, Salivary Glands",FACHpig2,7.07E-05 mSv/MBq
same,"Effective dose contribution HT wT, Small Intestine",FACHpig2,2.47E-04 mSv/MBq
same,"Effective dose contribution HT wT, Spleen",FACHpig2,8.20E-05 mSv/MBq
same,"Effective dose contribution HT wT, Stomach Wall",FACHpig2,1.22E-03 mSv/MBq
same,"Effective dose contribution HT wT, Testes",FACHpig2,2.83E-04 mSv/MBq
same,"Effective dose contribution HT wT, Thymus",FACHpig2,7.07E-05 mSv/MBq
same,"Effective dose contribution HT wT, Thyroid",FACHpig2,2.52E-04 mSv/MBq
same,"Effective dose contribution HT wT, Total Body",FACHpig2,0.00E+00 mSv/MBq
same,"Effective dose contribution HT wT, Urinary Bladder Wall",FACHpig2,1.25E-03 mSv/MBq
same,"Organ equivalent dose HT, Adrenals",FACHpig2,1.44E-02 mSv/MBq
same,"Organ equivalent dose HT, Brain",FACHpig2,4.35E-03 mSv/MBq
same,"Organ equivalent dose HT, Esophagus",FACHpig2,8.58E-03 mSv/MBq
same,"Organ equivalent dose HT, Eyes",FACHpig2,6.29E-03 mSv/MBq
same,"Organ equivalent dose HT, Gallbladder Wall",FACHpig2,5.18E-02 mSv/MBq
same,"Organ equivalent dose HT, Heart Wall",FACHpig2,9.21E-03 mSv/MBq
same,"Organ equivalent dose HT, Kidneys",FACHpig2,2.38E-02 mSv/MBq
same,"Organ equivalent dose HT, Left colon",FACHpig2,1.46E-02 mSv/MBq
same,"Organ equivalent dose HT, Liver",FACHpig2,2.77E-02 mSv/MBq
same,"Organ equivalent dose HT, Lungs",FACHpig2,7.96E-03 mSv/MBq
same,"Organ equivalent dose HT, Osteogenic Cells",FACHpig2,2.34E-02 mSv/MBq
same,"Organ equivalent dose HT, Pancreas",FACHpig2,2.28E-02 mSv/MBq
same,"Organ equivalent dose HT, Prostate",FACHpig2,1.02E-02 mSv/MBq
same,"Organ equivalent dose HT, Rectum",FACHpig2,1.38E-02 mSv/MBq
same,"Organ equivalent dose HT, Red Marrow",FACHpig2,1.64E-02 mSv/MBq
same,"Organ equivalent dose HT, Right colon",FACHpig2,3.25E-02 mSv/MBq
same,"Organ equivalent dose HT, Salivary Glands",FACHpig2,7.07E-03 mSv/MBq
same,"Organ equivalent dose HT, Small Intestine",FACHpig2,2.67E-02 mSv/MBq
same,"Organ equivalent dose HT, Spleen",FACHpig2,8.88E-03 mSv/MBq
same,"Organ equivalent dose HT, Stomach Wall",FACHpig2,1.01E-02 mSv/MBq
same,"Organ equivalent dose HT, Testes",FACHpig2,7.08E-03 mSv/MBq
same,"Organ equivalent dose HT, Thymus",FACHpig2,7.66E-03 mSv/MBq
same,"Organ equivalent dose HT, Thyroid",FACHpig2,6.30E-03 mSv/MBq
same,"Organ equivalent dose HT, Total Body",FACHpig2,9.14E-03 mSv/MBq
same,"Organ equivalent dose HT, Urinary Bladder Wall",FACHpig2,3.12E-02 mSv/MBq
same,Effective dose,FACHpig3,1.29E-02 mSv/MBq
same,"Effective dose contribution HT wT, Adrenals",FACHpig3,1.35E-04 mSv/MBq
same,"Effective dose contribution HT wT, Brain",FACHpig3,4.10E-05 mSv/MBq
same,"Effective dose contribution HT wT, Esophagus",FACHpig3,3.24E-04 mSv/MBq
same,"Effective dose contribution HT wT, Eyes",FACHpig3,0.00E+00 mSv/MBq
same,"Effective dose contribution HT wT, Gallbladder Wall",FACHpig3,8.05E-04 mSv/MBq

# Source: PMC7248880, “Preclinical Incorporation Dosimetry of [^18F]FACH—A Novel ^18F-Labeled MCT1/MCT4 Lactate Transporter Inhibitor for Imaging Cancer Metabolism with PET” (Molecules, 2020)
